In paper PMC5845353, “The selective cathepsin K inhibitor MIV-711 attenuates joint pathology in experimental animal models of osteoarthritis” (Journal of Translational Medicine, 2018):
Several values for one entry are separate records, joined by “and”; a condition that tells them apart may be missing. Identical values can stand only once.

Columns and labels:
[1] = test system: plasma proteins; test: Fraction bound to plasma proteins, rabbit; assay type: in vitro ADME
[2] = test system: dogs subjected to partial medial meniscectomy; test: Dog study, principal components analysis of exposure, biomarker, macro- and microscopic data; assay type: in vivo; conditions: 30 µmol/kg, p < 0.001
Procedure: Biomarker data was evaluated by two-way ANOVA, followed by Bonferroni’s or Dunnett’s correction for multiple comparisons when appropriate, using GraphPad Prism, version 6 (San Diego, CA). Synovial MIV-711 exposure data was evaluated by Student’s paired t-test. Data from µCT in rabbits was evaluated by one-way ANOVA followed by Dunnett’s correction for multiple comparisons (GraphPad). Macroscopic parameters in dogs were compared using Student’s unpaired t-test. The exposure data, biomarker data and macro- and microscopic data from the dog study were also imported into R (R Foundation for Statistical Computing Version 2.15.0, Vienna, Austria). A principal components analysis was performed using procedure prcomp. Derived scores were subjected to t-tests in Microsoft Excel 2007. Data are expressed as mean ± SEM, n = number of animals. A p-value < 0.05 was considered statistically significant.

[3] = test system: dogs subjected to partial medial meniscectomy; test: Dog partial medial meniscectomy study, collagen damage width; assay type: in vivo
From the text: Collagen damage across the medial tibial plateau (most severely affected section) was quantified by measuring the total width of the following:
Any damage (fibrillation ranging from superficial to full thickness loss)
Severe damage (total or near total loss of collagen to tidemark, >90% thickness)
Marked damage (extends through 61-90% of the cartilage thickness)
Moderate damage (extends thru 31-60% of the cartilage thickness)
Mild damage (extends through 11-30% of the cartilage thickness)
Minimal damage (very superficial, affecting upper 10% only)
Single clefts were arbitrarily given a measure of 100 µm and the number of clefts was multiplied by 100 if several are present.

[4] = test system: bone resorption biomarker HP-1; test: Urinary HP-1 (bone resorption biomarker) in ACLT rabbits; assay type: in vivo, rabbit
Procedure: Starting 1 week after sham operation or ACLT, animals were dosed daily for 7 weeks by oral gavage with either MIV-711 (synthesized by Medivir and given as a suspension in 1% Methocel A4C in water) or vehicle (1% Methocel A4C in water) at a dose volume of 4 mL/kg. The four treatment groups (n = 7 in each group) were: (1) sham + vehicle; (2) ACLT + vehicle; (3) ACLT + MIV-711, 30 µmol/kg (low dose) and (4) ACLT + MIV-711, 100 µmol/kg (high dose).
Urine was collected in the morning from all animals for biomarker measurements before surgery, before dosing on Day 1, Day 10 and during Week 4 and Week 7. The urine was stored frozen (− 70 to − 80 °C) until analysis.
In rabbits, conventional CTX-I assays to assess bone resorption cannot be used due to species differences. Instead, urinary helical peptide (HP-1) concentrations were measured in rabbits using the MicroVue Helical Peptide kit (Ref: 8022) from Quidel (San Diego, CA) according to the instructions supplied by the manufacturer. In dogs, urinary levels of C-terminal telopeptide of collagen type I (CTX-I) were measured using a commercially available kit (Urine BETA CrossLaps ELISA, Ref: AC-05F1, IDS Nordic Bioscience Diagnostics A/S). In rabbits and dogs, urinary concentrations of C-terminal telopeptide of collagen type II (CTX-II) were measured using the Urine CartiLaps EIA kit (Ref: AC-10F1) from Immunodiagnostics Systems (IDS, Herlev, Denmark) according to the instructions supplied by the manufacturer. In dogs, CTX-II levels were also measured in synovial fluid. Before ELISA analysis, 95 µL of synovial fluid was mixed with 5 µL of hyaluronidase (100 U/mL, Sigma, H-3884). The mixture was incubated overnight at 35 °C. The mixture was then used to measure CTX-II levels (Serum Pre-Clinical CartiLaps ELISA, Ref: AC-08F1, IDS Nordic Bioscience Diagnostics A/S). The creatinine levels in urine were determined at Swedish University of Agricultural Sciences (Uppsala, Sweden), using the enzymatic assay (Cat No. 8L24-01) on the Abbott system Architect c4000.

[5] = individual animals of MIV-711 group

C#C[C@@H]1CN(C(=O)[C@H](CC(C)C)NC(=O)c2ccc(-c3nc(N4CCN(C)CC4)sc3F)cc2)[C@@H]2C(=O)CO[C@H]12 [MIV-711]
fraction bound to plasma proteins [1]: 92%
principal component Score 2 (mainly biomarker data), vehicle vs MIV-711-treated groups [2]: significantly different
collagen degeneration, percentage of total width: Mild ([3]; group Mean): 17%
collagen degeneration, percentage of total width: Mild+ Minimal ([3]; group Mean): 28%
collagen degeneration, percentage of total width: Minimal ([3]; group Mean): 11%
collagen degeneration, percentage of total width: Moderate+ Mild+ Minimal ([3]; group Mean): 30%
collagen degeneration, percentage of total width: Normal ([3]; group Mean): 70%
collagen degeneration, percentage of total width: Severe ([3]; group Mean): 0%
collagen degeneration, percentage of total width: Severe+ Marked ([3]; group Mean): 0%
collagen degeneration, percentage of total width: Severe+ Marked+ Moderate ([3]; group Mean): 2%
collagen degeneration, percentage of total width: Severe+ Marked+ Moderate+ Mild ([3]; group Mean): 19%
collagen degeneration, percentage of total width: Total ([3]; group Mean): 30%
collagen degeneration, percentage of total width: Mild [3, 5]: 10% and 26% and 11% and 4% and 31% and 27% and 13% and 25% and 30% and 14% and 8% and 16%
collagen degeneration, percentage of total width: Mild+ Minimal [3, 5]: 18% and 31% and 23% and 14% and 35% and 39% and 20% and 24% and 34% and 58% and 25% and 16% and 28% and 30%
collagen degeneration, percentage of total width: Minimal [3, 5]: 9% and 5% and 12% and 10% and 4% and 7% and 8% and 27% and 2% and 20% and 14%
collagen degeneration, percentage of total width: Moderate+ Mild+ Minimal [3, 5]: 19% and 31% and 23% and 24% and 35% and 39% and 27% and 34% and 58% and 29% and 18% and 28% and 26% and 30%
collagen degeneration, percentage of total width: Normal [3, 5]: 81% and 69% and 77% and 76% and 65% and 61% and 73% and 62% and 42% and 71% and 82% and 72% and 74% and 70%
collagen degeneration, percentage of total width: Severe [3, 5]: 0%
collagen degeneration, percentage of total width: Severe+ Marked [3, 5]: 0%
collagen degeneration, percentage of total width: Severe+ Marked+ Moderate [3, 5]: 1% and 0% and 10% and 7% and 4% and 2% and 3%
collagen degeneration, percentage of total width: Severe+ Marked+ Moderate+ Mild [3, 5]: 11% and 26% and 14% and 31% and 27% and 20% and 13% and 25% and 30% and 17% and 16% and 8% and 19%
collagen degeneration, percentage of total width: Total [3, 5]: 19% and 31% and 23% and 24% and 35% and 39% and 27% and 38% and 58% and 29% and 18% and 28% and 26% and 30%
% inhibition, collagen degeneration width: Mild ([3]; versus Vehicle): -2%
% inhibition, collagen degeneration width: Mild+ Minimal ([3]; versus Vehicle): 12%
% inhibition, collagen degeneration width: Minimal ([3]; versus Vehicle): 28%
% inhibition, collagen degeneration width: Moderate+ Mild+ Minimal ([3]; versus Vehicle): 12%
% inhibition, collagen degeneration width: Normal ([3]; versus Vehicle): -6%
% inhibition, collagen degeneration width: Severe+ Marked+ Moderate ([3]; versus Vehicle): 21%
% inhibition, collagen degeneration width: Severe+ Marked+ Moderate+ Mild ([3]; versus Vehicle): 1%
% inhibition, collagen degeneration width: Total ([3]; versus Vehicle): 12%
HP-1 levels decreased by up to, vs ACLT vehicle controls ([4]; ACLT rabbits, over doses 30 and 100 µmol/kg and time points): up to 72%
urinary HP-1 levels reduced by, vs ACLT rabbits treated with vehicle ([4]; after 4 weeks, 30 µmol/kg): 43%
urinary HP-1 levels reduced by, vs ACLT rabbits treated with vehicle ([4]; after 4 weeks, 100 µmol/kg): 68%
urinary HP-1 levels reduced by, vs ACLT rabbits treated with vehicle ([4]; after 7 weeks, 30 µmol/kg (p > 0.05)): 25%
urinary HP-1 levels reduced by, vs ACLT rabbits treated with vehicle ([4]; after 7 weeks, 100 µmol/kg): 51%
urinary HP-1 levels reduced by, vs ACLT rabbits treated with vehicle ([4]; after 10 days of dosing, 30 µmol/kg): 45%
urinary HP-1 levels reduced by, vs ACLT rabbits treated with vehicle ([4]; after 10 days of dosing, 100 µmol/kg): 72%
